Measured values reported in patent US20080090863A1, “Pyridine Derivatives and Their Use as Medicaments for Treating Diseases Related to Mch Receptor” (TAISHO PHARMACEUTICAL CO., LTD., priority 2004, published 2008).
Counter-ions that a name gives are not always drawn.

Molecular target: MCH receptor (Homo sapiens, UniProt Q99705)
Assay: High Throughput Functional Screening: FLIPR/FDSS6000 intracellular Ca2+ assay, antagonist activity against MCH
Format: cell-based
Parameters: class (percent of control at 10^−7 M or IC50): scale not given here
Details: FLIPR/FDSS, [Ca2+]i evoked by 50 nM MCH; class by percent of control at 10^−7 M or IC50
Description: Subsequently, a functional based assay was used to confirm the lead hits, referred to as FLIPR™ (the Fluorometric Imaging Plate Reader) and FDSS6000™ (Functional Drug Screening System). This assay utilized a non-endogenous, constitutively active version of the MCH receptor.
The FLIPR and FDSS assays are able to detect intracellular Ca^2+ concentration in cells, which can be utilized to assess receptor activation and determine whether a candidate compound is an, for example, antagonist, inverse agonist or agonist to a Gq-coupled receptor. The concentration of free Ca^2+ in the cytosol of any cell is extremely low, whereas its concentration in the extracellular fluid and endoplasmic reticulum (ER) is very high. Thus, there is a large gradient tending to drive Ca^2+ into the cytosol across both the plasma membrane and ER. The FLIPR™ and FDSS6000™ systems (Molecular Devices Corporation, HAMAMATSU Photonics K.K.) are designed to perform functional cell-based assays, such as the measurement of intracellular calcium for high-throughput screening. The measurement of fluorescent is associated with calcium release upon activation of the Gq-coupled receptors.
Fluorometric Imaging Plate Reader system was used to allow for rapid, kinetic measurements of intracellular fluorescence in 96 well microplates (or 384 well microplates). Simultaneous measurements of fluorescence in all wells can be made by FLIPR or FDSS6000™ every second with high sensitivity and precision. These systems are ideal for measuring cell-based functional assays such as monitoring the intracellular calcium fluxes that occur within seconds after activation of the Gq coupled receptor.
Briefly, the cells are seeded into 96 well at 5.5×10^4 cells/well with complete culture media (Dulbecco's Modified Eagle Medium with 10% fetal bovine serum, 2 mM L-glutamine, 1 mM sodium pyruvate and 0.5 mg/mL G418, pH 7.4) for the assay next day. On the day of assay, the media is removed and the cells are incubated with 100 μl of loading buffer (4 μM Fluo4-AM in complete culture media containing 2.5 mM Probenicid, 0.5 mg/ml and 0.2% bovine serum albumin) in 5% CO2 incubator at 37° C. for 1 hr. The loading buffer is removed, and the cells are washed with wash buffer (Hank's Balanced Salt Solution containing 2.5 mM Probenicid, 20 mM HEPES, 0.5 mg/mL and 0.2% bovine serum albumin, pH 7.4). One hundred fifty μl of wash buffer containing various concentrations of test compound is added to the cells, and the cells are incubated in 5% CO2 incubator at 37° C. for 30 min. Fifty μl of wash buffer containing various concentration of MCH are added to each well, and transient changes in [Ca^2+]i evoked by MCH are monitored using the FLIPR™ or FDSS in 96 well plates at Ex. 488 nm and Em. 530 nm for 290 second. When antagonist activity of compound is tested, 50 nM of MCH is used.
Use of FLIPR™ and FDSS6000™ can be accomplished by following manufacturer's instruction (Molecular Device Corporation and HAMAMATSU Photonics K.K.).

Row | SMILES | class (percent of control at 10^−7 M or IC50)
1 | Cc1cc(N(C)C)cc(N[C@H]2CC[C@@H](NC(=O)c3cccc(C(F)(F)F)c3)CC2)n1 [Example 177, N-(cis-4-{[4-(dimethylamino)-6-methylpyridin-2-yl]amino}cyclohexyl)-3-(trifluoromethyl)benzamide] | 2
2 | Cc1cc(C)c(N[C@H]2CC[C@@H](NC(=O)c3ccc(F)c(Cl)c3)CC2)nc1C.Cl [Example 53, 3-Chloro-4-fluoro-N-{cis-4-[(3,5,6-trimethylpyridin-2-yl)amino]cyclohexyl}benzamide hydrochloride] | 2
3 | Cc1cc(N(C)C)cc(N[C@H]2CC[C@@H](NC(=O)Cc3cccc4ccccc34)CC2)n1 [Example 168, N-(cis-4-{[4-(dimethylamino)-6-methylpyridin-2-yl]amino}cyclohexyl)-2-(1-naphthyl)acetamide] | 2
4 | Cc1cnc(N[C@H]2CC[C@@H](NC(=O)c3ccc(F)c(Cl)c3)CC2)cc1N.Cl [Example 17, N-{cis-4-[(4-Amino-5-methylpyridin-2-yl)amino]cyclohexyl}-3-chloro-4-fluorobenzamide hydrochloride] | 2
5 | Cc1cnc(N[C@H]2CC[C@@H](NC(=S)Nc3ccc(F)c(Cl)c3)CC2)cc1N(C)C.Cl [Example 26, N-(3-Chloro-4-fluorophenyl)-N′-(cis-4-{[4-(dimethylamino)-5-methylpyridin-2-yl]amino}-cyclohexyl)thiourea hydrochloride] | 2
6 | Cc1cnc(N[C@H]2CC[C@@H](NC(=O)c3ccc(F)c(Cl)c3)CC2)cc1N(C)CCc1ccccc1.Cl [Example 49, 3-Chloro-4-fluoro-N-[cis-4-({5-methyl-4-[methyl(2-phenylethyl)amino]pyridin-2-yl}amino)cyclohexyl]benzamide hydrochloride] | 2
7 | Cc1ccnc(N[C@H]2CC[C@@H](NC(=O)c3ccc(F)c(Cl)c3)CC2)c1.Cl [Example 35, 3-Chloro-4-fluoro-N-{cis-4-[(4-methylpyridin-2-yl)amino]cyclohexyl}benzamide hydrochloride] | 2
8 | Cc1cnc(N[C@H]2CC[C@@H](CNC(=O)c3ccc(F)c(Cl)c3)CC2)cc1N(C)C.Cl [Example 32, 3-Chloro-N-[(cis-4-{[4-(dimethylamino)-5-methylpyridin-2-yl]amino}cyclohexyl)methyl]-4-fluorobenzamide hydrochloride] | 2
9 | CCN(C)c1cc(N[C@H]2CC[C@@H](NC(=O)c3ccc(F)c(Cl)c3)CC2)ncc1C.Cl [Example 19, 3-Chloro-N-[cis-4-({4-[ethyl(methyl)amino]-5-methylpyridin-2-yl}amino)cyclohexyl]-4-fluorobenzamide hydrochloride] | 2
10 | Cc1ccc(N[C@H]2CC[C@@H](NC(=O)c3ccc(F)c(Cl)c3)CC2)nc1.Cl [Example 2, 3-Chloro-4-fluoro-N-{cis-4-[(5-methylpyridin-2-yl)amino]cyclohexyl}benzamide hydrochloride] | 2

Same assay, conditions: FLIPR/FDSS, [Ca2+]i evoked by 50 nM MCH; class by percent of control at 10^−7 M or IC50; read-out: class (percent of control at 10^−7 M or IC50)

Row | SMILES | IC50
11 | Cc1cc(N(C)C)cc(N[C@H]2CC[C@@H](NC(=O)COc3ccc(Cl)cc3)CC2)n1 [Example 147, 2-(4-chlorophenoxy)-N-(cis-4-{[4-(dimethylamino)-6-methylpyridin-2-yl]amino}cyclohexyl)acetamide] | < 50 nM
12 | Cc1cc(N(C)C)cc(N[C@H]2CC[C@@H](NC(=O)c3ccc(F)c(F)c3)CC2)n1 [Example 171, N-(cis-4-{[4-(dimethylamino)-6-methylpyridin-2-yl]amino}cyclohexyl)-3,4-difluorobenzamide] | < 50 nM
13 | Cc1cc(N(C)C)cc(N[C@H]2CC[C@@H](NC(=O)C3(c4ccc(Cl)cc4)CCCC3)CC2)n1 [Example 186, 1-(4-chlorophenyl)-N-(cis-4-{[4-(dimethylamino)-6-methylpyridin-2-yl]amino}cyclohexyl)cyclopentanecarboxamide] | < 50 nM
14 | O=C(N[C@H]1CC[C@@H](Nc2ccc3c(n2)CCCC3)CC1)c1ccc(F)c(Cl)c1 [Example 39, 3-Chloro-4-fluoro-N-[cis-4-(5,6,7,8-tetrahydroquinolin-2-ylamino)cyclohexyl]benzamide hydrochloride] | < 50 nM
15 | Cc1cnc(N[C@H]2CC[C@@H](NC(=O)c3cccc(C(F)(F)F)c3)CC2)cc1N(C)C [Example 14, N-(cis-4-{[4-(Dimethylamino)-5-methylpyridin-2-yl]amino}cyclohexyl)-3-(trifluoromethyl)-benzamide hydrochloride] | < 50 nM
16 | Cc1cnc(N[C@H]2CC[C@@H](NC(=O)c3cccc(Cl)c3)CC2)cc1N(C)C [Example 10, 3-Chloro-N-(cis-4-{[4-(dimethylamino)-5-methylpyridin-2-yl]amino}cyclohexyl)benzamide hydrochloride] | < 50 nM
17 | Cc1cc(N(C)C)cc(N[C@H]2CC[C@@H](NC(=O)c3cc(F)c(F)c(F)c3)CC2)n1 [Example 29, N-(cis-4-{[4-(Dimethylamino)-6-methylpyridin-2-yl]amino}cyclohexyl)-3,4,5-trifluorobenzamide hydrochloride] | < 50 nM
18 | Cc1cnc(N[C@H]2CC[C@@H](NC(=O)c3cc(Cl)cc(Cl)c3)CC2)cc1N(C)C [Example 7, 3,5-Dichloro-N-(cis-4-{[4-(dimethylamino)-5-methylpyridin-2-yl]amino}cyclohexyl)benzamide hydrochloride] | < 50 nM
19 | Cc1cc(N(C)C)cc(N[C@H]2CC[C@@H](NC(=O)c3ccc(Cl)cc3)CC2)n1 [Example 185, 4-chloro-N-(cis-4-{[4-(dimethylamino)-6-methylpyridin-2-yl]amino}cyclohexyl)benzamide] | < 50 nM
20 | Cc1cnc(N[C@H]2CC[C@@H](NC(=O)c3cccc(OC(F)(F)F)c3)CC2)cc1N(C)C [Example 12, N-(cis-4-{[4-(Dimethylamino)-5-methylpyridin-2-yl]amino}cyclohexyl)-3-(trifluoromethoxy)-benzamide hydrochloride] | < 50 nM
21 | Cc1ccc(N[C@H]2CC[C@@H](NC(=O)c3ccc(F)c(Cl)c3)CC2)nc1C [Example 43, 3-Chloro-N-{cis-4-[(5,6-dimethylpyridin-2-yl)amino]cyclohexyl}-4-fluorobenzamide hydrochloride] | < 50 nM
22 | Cc1cc(N[C@H]2CC[C@@H](NC(=O)c3ccc(F)c(Cl)c3)CC2)nc(C)c1C [Example 50, 3-Chloro-4-fluoro-N-{cis-4-[(4,5,6-trimethylpyridin-2-yl)amino]cyclohexyl}benzamide hydrochloride] | < 50 nM
23 | Cc1cc(N(C)C)cc(N[C@H]2CC[C@@H](NC(=O)c3cccc([N+](=O)[O-])c3)CC2)n1 [Example 190, N-(cis-4-{[4-(dimethylamino)-6-methylpyridin-2-yl]amino}cyclohexyl)-3-nitrobenzamide] | < 50 nM
24 | Cc1cc(N[C@H]2CC[C@@H](NC(=O)c3ccc(F)c(Cl)c3)CC2)nc2c1CCC2 [Example 33, 3-Chloro-4-fluoro-N-{cis-4-[(4-methyl-6,7-dihydro-5H-cyclopenta[b]pyridin-2-yl)amino]cyclohexyl}benzamide hydrochloride] | < 50 nM
